Experiments:
Format in all cases: in vivo, BALB/c mice
OVA-sensitized mice [1] = assay: Lung tissue histology (hematoxylin and eosin, light microscope); conditions: ribavirin 30 and 10 mg/ml; FIG. 4
Protocol: (§1) Female BALB/c mice were obtained and maintained in the Animal Center of the College of Medicine of National Taiwan University (Taiwan, R.O.C.). Animals were used between 6 and 10 weeks of age and were age matched within each experiment. Animal experiment protocol was approved by Animal Committee of the College of Medicine of National Taiwan University (Taiwan, R.O.C.).
(§2) Mice were randomly divided into 4 groups and sensitized by an intraperitoneal injection of OVA (10 μg), which were complexed with aluminum potassium sulfate (alum, 2 mg) on day 0. All mice were boosted with another shot of OVA (10 μg) on day 14 and day 28, respectively. The mice in the negative control group were injected with phosphate buffer solution (PBS). As to the mice in the rest three groups, each group received 20 μl of 0, 10 or 30 mg/ml ribavirin together with intranasal challenge of 0.05 mg of OVA on days 38-40, respectively. AHR for mice in each group was measured on day 41, and all mice were bled and sacrificed on day 42, when the experiment ended. FIG. 1 illustrated the timeline of the above-identified OVA protocol used in this study.
After the lavage, the lungs were immediately removed and fixed in 10% neutral-buffered formalin, routinely processed, and embedded in paraffin wax. […]

OVA-sensitized mice [2] = assay: Airway hyper-responsiveness (AHR) to aerosolized methacholine, whole-body plethysmography (Penh); conditions: intranasal ribavirin 10 or 30 mg/ml, Mch 0-50 mg/ml, FIG. 2
Protocol: as §1
Mice were randomly divided into 4 groups and sensitized by an intraperitoneal injection of OVA (10 μg), which were complexed with aluminum potassium sulfate (alum, 2 mg) on day 0. All mice were boosted with another shot of OVA (10 μg) on day 14 and day 28, respectively. The mice in the negative control group were injected with phosphate buffer solution (PBS). […] AHR for mice in each group was measured on day 41, and all mice were bled and sacrificed on day 42, when the experiment ended. […]
The effect of ribavirin on airway responsiveness to aerosolized methacholine (Mch) in OVA-sensitized mice were assessed by the following procedures. […] Each reading was taken for 3 minutes and averaged for the entire time course after nebulization. Calculated Data were expressed as the fold increases above saline challenge baseline values using the dimensionless parameter Penh as described. […]

OVA-sensitized mice [3] = assay: Cellular composition of bronchoalveolar lavage (BAL) fluid (airway eosinophilic inflammation); conditions: ribavirin 10 or 30 mg/ml intranasal
Protocol: as §1, §2
Whether ribavirin could alleviate airway inflammation in OVA-sensitized mice was determined by analyzing the cellular composition in the bronchoalveolar lavage (BAL) fluid of the sensitized mice 48 hours a the last challenge. In brief, all groups of OVA sensitized mice were bled from the retro-orbital venous plexus and sacrificed. The lung was immediately lavaged via the trachea cannula with 3×1 ml of HBSS, free of ionized calcium and magnesium. The lavage fluid was centrifuged at 400 xg for 10 minutes at 4° C. After washing, the cells were resuspended in 1 ml HBSS and total cells counts were determined by use of a hemocytometer. Cytocentrifuged preparations were stained with Liu's stain for different cell counts. A minimum of 200 cells was counted and classified as macrophages, lymphocytes, neutrophils and eosinophils, based on standard morphological criteria. Results were illustrated in FIG. 3. […] On the contrary, treatment of ribavirin (10 or 30 mg/ml) decreased not only the total cell counts (FIG. 3A), but also the number of respective cell types including monocytes, neutrophils, and eosinophiles (FIG. 3B).

OVA-sensitized mice [4] = assay: Chemokine/cytokine levels in BAL fluid by ELISA
Protocol: as §1, §2
OVA-sensitized mice were lavage according to the procedure described above, and the levels of chemokines were assayed by an ELISA kit (R&D) in accordance with the manufacturer's instructions. Take the measurement of eotaxin as an example, the BAL fluid was collected and added to wells precoated with anti-eotaxin antibodies over night at 4° C. After incubation for 2 hours, the plates were washed and biotin-conjugated antibodies were added. After two more hours at room temperature, HRP-avidin was then added, and the OD (at 450 nm) values were converted to concentrations of eotaxin in the BALF. The level of other chemokines including KC, IL-4 and INF-γ may be measured according to similar procedures. Results were illustrated in FIG. 5.

Structure (SMILES): NC(=O)c1ncn([C@@H]2O[C@H](CO)[C@@H](O)[C@H]2O)n1 [ribavirin]
- infiltration of cells in the lung (OVA-sensitized mice [1]): efficiently inhibit the infiltration of the cells
- pathological damage within the lung (OVA-sensitized mice [1]): reduce the pathological damage within the lung
- airway responsiveness to Mch (Penh) (OVA-sensitized mice [2]): inhibited the increase in airway responsiveness to Mch
- total cell counts in BAL fluid (OVA-sensitized mice [3]; 48 hours after last challenge, FIG. 3A): decreased
- number of eosinophils in BAL fluid (OVA-sensitized mice [3]; FIG. 3B): decreased
- number of monocytes in BAL fluid (OVA-sensitized mice [3]; FIG. 3B): decreased
- number of neutrophils in BAL fluid (OVA-sensitized mice [3]; FIG. 3B): decreased
- level of IF-γ in BAL fluid (OVA-sensitized mice [4]; FIG. 5a): not affected
- level of IL-4 in BAL fluid (OVA-sensitized mice [4]; FIG. 5b): not affected
- level of KC in BAL fluid (OVA-sensitized mice [4]; FIG. 5c): significant reduced
- level of eotaxin in BAL fluid (OVA-sensitized mice [4]; FIG. 5d): significant reduced

From patent US8258104B2, “Method and composition for treating allergic diseases” (Wholesome Biopharm Pty Ltd., priority 2006, dated 2012)
